# From US4889860A (Nova Pharmaceutical Corporation, priority 1987, dated 1989)
# Where two headings read alike, the source gives them in different places.
# What was measured:
# [1] = target: T1, kappa-type opioid receptor (Cavia porcellus, UniProt P41144); experiment: inhibition of specific [^3 H] EKC binding to guinea pig cerebellum membrane
# T1 construct: using guiniea pig cerebellum membrane; from tissue; host or cells: guinea pig cerebellum membranes
# Procedure: (§1) The interaction of some of the novel compounds with mu, delta and kappa - type opioid receptors present in brain membranes was examined in vitro. […] DAGO (mu-type receptor), or [^3 H] DADLE (Delta-type receptor) using rat forebrain membranes and [^3 H] EKC (kappa-type receptor) using guiniea pig cerebellum membrane was determined. Computer assisted analysis (EBDA) was used to determine apparent Ki values for the various compounds.
# (§2) The values represent the MEAN±S.E.M. of the Ki(nM) for each compound to inhibit specific binding of the indicated ligand. Each value represents the mean of three individual experiments performed on separate occasions.
# [2] = target: delta-type opioid receptor (Rattus norvegicus, UniProt P33533); experiment: inhibition of specific [^3 H] DADLE binding to rat forebrain membranes
# Procedure: (§3) The interaction of some of the novel compounds with mu and delta-type opioid receptors present in brain membranes was examined in vitro. […] DAGO (mu-type receptor) or [^3 H] DADLE (delta-type receptor) was determined using rat forebrain membranes. Computer assisted analysis (EBDA) was used to determine apparent Ki values for the various compounds.
# (§4) Values represent the MEAN±S.E.M. of the Ki(nM) for each compound to inhibit specific binding of the indicated ligand to rat brain membranes. The values are from two-five separate experiments and were calculated according to the method of Cheng and Prusoff [Biochem. Pharmacol. 1973, 22, 3099-3108] together with the EBDA Program. Numbers in parentheses are the mean Hill coefficients for each compound to inhibit ligand binding.
# (§5) Values represent the MEAN±S.E.M. of the Ki(nM) for each compound to inhibit specific binding of the indicated ligand to rat brain membranes. The values are from two.div.seven separate experiments and were calculated according to the method of Cheng and Prusoff together with the EBDA program. Numbers in parentheses are the mean Hill coefficients for each compound to inhibit ligand binding. N.D.=not determined
# as §1, §2
# [3] = food intake in 24 hr food-deprived rats; format: in vivo, rat; conditions: for Food Intake in Grams: Table 3, 24 hr; for Cumulative Food Intake in Grams: Table 4
# Procedure: (§6) Rats were given water and powdered food ad lib for 8 days until food intake had stabilized, and body weight and food and water intakes were recorded at the same time every day. Animals were assigned to treatment groups matched on the basis of their 24 hr food consumption on the last baseline day, and rats were food deprived for 24 hr immediately before injection of the test compound. […] The compound of Example XII was injected S.C. at doses of 1.15, 2.31, 11.55 and 23.09 μmol/kg, in a volume of 4 ml/kg of 0.3% acetic acid. Controls were injected with the vehicle solutions in the appropriate volumes. Food and water intakes were measured at 1, 3 and 24 hr after treatment. Data for each measure and time point were analyzed by one-way analysis of variance (ANOVA), and post-hoc comparisons were performed using Dunnett's test in order to compare the control mean to each of the treatment means.
# (§7) Rats were given water and powdered food for 8 days, and following this,
# (§8) Testing was performed as described above, and baseline measurements were recorded for 7 days. […] The compound of Example XII was injected at doses of 11.55, 23.09, 46.19 and 92.38 μmol/kg by suspension in a solution of 1:1 DMSO:water in a volume of 3 ml/kg. Food and water intakes were recorded at 1, 2, 4 and 6 h following treatment.
# See Table 3 for experimental details, except that baseline measures were […]
# [4] = target: T2, mu-type opioid receptor (Rattus norvegicus, UniProt P33535); experiment: inhibition of specific [^3 H] DAGO binding to rat forebrain membranes
# T2 construct: using rat forebrain membranes; from tissue; host or cells: rat forebrain membranes
# Procedure: as §3, §4, §5, §1, §2
# [5] = water intake in 24 hr food-deprived rats; format: in vivo, rat; conditions: for Water Intake: Table 3, 24 hr; for Cumulative Water Intake: Table 5
# Procedure: as §6, §7, §8
# See Table 3 for experimental details, except that baseline measurements
# [6] = tested on: oxymorphonazine (OMZ)-induced analgesia; experiment: antagonism of oxymorphonazine (OMZ)-induced analgesia (tail flick) in rats; format: in vivo, rat
# Procedure: The compound of Example XII was evaluated for its potency and duration in the antagonism of oxymorphonazine (OMZ)-induced analgesia. […] Data represent the mean SEM of 4-5 animals per group.
# (Cowan A. Trendsin Pharmacology Science, 7:69-72, 1986) With this test the intracerebroventricular administration of bombesin produces a characteristic scratching response.
# [7] = S.C., dose tested (mg/kg): Naltrexone 0.5, Nalmefene 1.0, XI 10.0, XII 2.5, XIII 0.5, XIV 5.0
# T2 sequence (P33535 whole entry): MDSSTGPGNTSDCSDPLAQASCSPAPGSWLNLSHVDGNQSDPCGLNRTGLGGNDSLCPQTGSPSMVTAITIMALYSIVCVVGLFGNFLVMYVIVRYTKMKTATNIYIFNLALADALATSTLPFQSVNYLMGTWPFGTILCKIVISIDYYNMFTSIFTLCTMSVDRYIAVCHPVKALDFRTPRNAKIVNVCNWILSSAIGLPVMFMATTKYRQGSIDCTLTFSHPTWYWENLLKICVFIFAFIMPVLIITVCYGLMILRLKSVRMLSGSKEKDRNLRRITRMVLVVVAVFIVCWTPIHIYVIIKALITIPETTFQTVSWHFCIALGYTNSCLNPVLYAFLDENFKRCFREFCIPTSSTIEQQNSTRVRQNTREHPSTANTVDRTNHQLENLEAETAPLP
# Sequence of delta-type opioid receptor (P33533 whole entry): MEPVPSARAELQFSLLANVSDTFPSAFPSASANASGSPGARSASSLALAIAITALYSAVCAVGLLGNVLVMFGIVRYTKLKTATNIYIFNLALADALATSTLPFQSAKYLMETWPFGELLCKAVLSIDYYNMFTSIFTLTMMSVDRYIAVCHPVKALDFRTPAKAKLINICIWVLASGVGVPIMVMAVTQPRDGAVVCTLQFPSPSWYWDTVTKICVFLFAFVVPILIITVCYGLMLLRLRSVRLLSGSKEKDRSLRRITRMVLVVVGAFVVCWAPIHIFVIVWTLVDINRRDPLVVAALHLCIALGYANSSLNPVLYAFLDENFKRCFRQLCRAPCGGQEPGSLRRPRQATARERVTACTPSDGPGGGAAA
# T1 sequence (P41144 whole entry): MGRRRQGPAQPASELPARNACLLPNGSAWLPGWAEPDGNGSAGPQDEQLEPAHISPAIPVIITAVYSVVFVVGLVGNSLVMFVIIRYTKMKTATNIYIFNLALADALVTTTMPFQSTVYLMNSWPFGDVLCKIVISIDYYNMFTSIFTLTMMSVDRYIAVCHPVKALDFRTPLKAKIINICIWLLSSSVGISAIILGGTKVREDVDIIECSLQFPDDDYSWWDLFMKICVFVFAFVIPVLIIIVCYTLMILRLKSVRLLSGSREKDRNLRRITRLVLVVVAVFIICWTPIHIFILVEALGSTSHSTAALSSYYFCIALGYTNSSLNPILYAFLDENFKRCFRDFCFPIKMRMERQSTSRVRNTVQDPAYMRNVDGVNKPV
smiles,measurement,setting,value
"Oc1ccc2c3c1O[C@H]1C(=NOc4ccccc4)CC[C@@]4(O)[C@@H](C2)N(CC2CC2)CC[C@]314 [Example XII, 6-Phenyloximino-17-cyclopropylmethyl-4,5 α-epoxy-3, 14-dihydroxymorphinan]",Ki,[1],3.47 nM
same,Ki,"[2]; read-out: (Ki) nM, δ receptor (Rat Forebrain), Table 6, [^3 H] DADLE, mean of three experiments",0.58 nM
same,Ki,"[2]; read-out: Ki, inhibition of specific [^3 H] DADLE binding, Tables 1 and 2, rat brain membranes, MEAN±S.E.M.",1.7 ± 0.51 nM
same,Food Intake in Grams,[3]; S.C. 1.15 μmol/kg,33.3 ± 1.6 Grams
same,Food Intake in Grams,[3]; S.C. 2.31 μmol/kg,31.0 ± 2.0 Grams
same,Food Intake in Grams,[3]; S.C. 11.55 μmol/kg,41.7 ± 7.4 Grams
same,Food Intake in Grams,[3]; S.C. 23.09 μmol/kg,37.6 ± 5.6 Grams
same,Cumulative Food Intake in Grams,"[3]; S.C. 11.55 μmol/kg, 0-1 Hr",2.0 ± 1.0 Grams
same,Cumulative Food Intake in Grams,"[3]; S.C. 11.55 μmol/kg, 0-2 Hr",2.0 ± 1.0 Grams
same,Cumulative Food Intake in Grams,"[3]; S.C. 11.55 μmol/kg, 0-4 Hr",2.8 ± 0.9 Grams
same,Cumulative Food Intake in Grams,"[3]; S.C. 11.55 μmol/kg, 0-6 Hr",3.6 ± 1.3 Grams
same,Cumulative Food Intake in Grams,"[3]; S.C. 23.09 μmol/kg, 0-1 Hr",2.0 ± 0.7 Grams
same,Cumulative Food Intake in Grams,"[3]; S.C. 23.09 μmol/kg, 0-2 Hr",2.4 ± 0.8 Grams
same,Cumulative Food Intake in Grams,"[3]; S.C. 23.09 μmol/kg, 0-4 Hr",3.6 ± 1.5 Grams
same,Cumulative Food Intake in Grams,"[3]; S.C. 23.09 μmol/kg, 0-6 Hr",3.6 ± 1.5 Grams
same,Cumulative Food Intake in Grams,"[3]; S.C. 46.19 μmol/kg, 0-1 Hr",2.8 ± 0.6 Grams
same,Cumulative Food Intake in Grams,"[3]; S.C. 46.19 μmol/kg, 0-2 Hr",2.8 ± 0.6 Grams
same,Cumulative Food Intake in Grams,"[3]; S.C. 46.19 μmol/kg, 0-4 Hr",3.2 ± 0.6 Grams
same,Cumulative Food Intake in Grams,"[3]; S.C. 46.19 μmol/kg, 0-6 Hr",3.6 ± 0.8 Grams
same,Cumulative Food Intake in Grams,"[3]; S.C. 92.38 μmol/kg, 0-1 Hr",3.2 ± 0.6 Grams
same,Cumulative Food Intake in Grams,"[3]; S.C. 92.38 μmol/kg, 0-2 Hr",3.2 ± 0.6 Grams
same,Cumulative Food Intake in Grams,"[3]; S.C. 92.38 μmol/kg, 0-4 Hr",4.0 ± 0.7 Grams
same,Cumulative Food Intake in Grams,"[3]; S.C. 92.38 μmol/kg, 0-6 Hr",4.8 ± 1.1 Grams
same,Ki,"[4]; (Ki) nM, μ receptor (Rat Forebrain), Table 6, [^3 H] DAGO, mean of three experiments",0.3 nM
same,Ki,"[4]; Ki, inhibition of specific [^3 H] DAGO binding, Tables 1 and 2, rat brain membranes, MEAN±S.E.M.",0.21 ± 0.08 nM
same,Water Intake,[5]; S.C. 1.15 μmol/kg,68.3 ± 8.8 mL
same,Water Intake,[5]; S.C. 2.31 μmol/kg,65.0 ± 6.2 mL
same,Water Intake,[5]; S.C. 11.55 μmol/kg,60.3 ± 2.1 mL
same,Water Intake,[5]; S.C. 23.09 μmol/kg,62.8 ± 3.6 mL
same,Cumulative Water Intake,"[5]; S.C. 11.55 μmol/kg, 0-1 Hr",4.8 ± 1.1 mL
same,Cumulative Water Intake,"[5]; S.C. 11.55 μmol/kg, 0-2 Hr",8.0 ± 1.2 mL
same,Cumulative Water Intake,"[5]; S.C. 11.55 μmol/kg, 0-4 Hr",15.6 ± 2.5 mL
same,Cumulative Water Intake,"[5]; S.C. 11.55 μmol/kg, 0-6 Hr",22.0 ± 1.6 mL
same,Cumulative Water Intake,"[5]; S.C. 23.09 μmol/kg, 0-1 Hr",4.0 ± 1.0 mL
same,Cumulative Water Intake,"[5]; S.C. 23.09 μmol/kg, 0-2 Hr",7.2 ± 0.6 mL
same,Cumulative Water Intake,"[5]; S.C. 23.09 μmol/kg, 0-4 Hr",13.2 ± 2.3 mL
same,Cumulative Water Intake,"[5]; S.C. 23.09 μmol/kg, 0-6 Hr",19.6 ± 2.2 mL
same,Cumulative Water Intake,"[5]; S.C. 46.19 μmol/kg, 0-1 Hr",5.2 ± 0.9 mL
same,Cumulative Water Intake,"[5]; S.C. 46.19 μmol/kg, 0-2 Hr",8.0 ± 1.6 mL
same,Cumulative Water Intake,"[5]; S.C. 46.19 μmol/kg, 0-4 Hr",15.2 ± 1.5 mL
same,Cumulative Water Intake,"[5]; S.C. 46.19 μmol/kg, 0-6 Hr",20.8 ± 2.9 mL
same,Cumulative Water Intake,"[5]; S.C. 92.38 μmol/kg, 0-1 Hr",4.0 ± 0.7 mL
same,Cumulative Water Intake,"[5]; S.C. 92.38 μmol/kg, 0-2 Hr",7.6 ± 0.8 mL
same,Cumulative Water Intake,"[5]; S.C. 92.38 μmol/kg, 0-4 Hr",15.2 ± 1.8 mL
same,Cumulative Water Intake,"[5]; S.C. 92.38 μmol/kg, 0-6 Hr",21.2 ± 2.1 mL
same,"antagonism of OMZ-induced analgesia, PO","[6]; PO, 42.64 μmol/kg, 0.5 hours",50%
same,ED50,"[6]; Rattus norvegicus, sc, Table 8, S.C., read-out: ED 50, oxymorphonazine antagonism",0.34 mg/kg
same,ED100,"[6]; Rattus norvegicus, sc, Table 8, S.C., read-out: ED 100, oxymorphonazine antagonism",3.1 mg/kg
same,Percent Antagonism at 1 Hr,[6]; [7],90%
same,Percent Antagonism at 1.5 Hr,[6]; [7],92%
same,Percent Antagonism at 2 Hr,[6]; [7],91%
same,Percent Antagonism at 3 Hr,[6]; [7],77%
same,Percent Antagonism at 4 Hr,[6]; [7],91%
same,Percent Antagonism at 6 Hr,[6]; [7],92%
same,Percent Antagonism at 8 Hr,[6]; [7],80%
